Active and inactive are the calls of the source.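 Rule for the calls: active = EC50 no more than a set limit of log units above the highest dose; inactive = the rest.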 A value given as a limit tells only on which side of the number the result lay.

The target in the experiment is S. pyogenes SKKanGAS, kanamycin survival, BacTiterGlo, 6 h. In words: SKKanGAS survival reduction under kanamycin, dose response, streptokinase promoter inhibitor project, SKKanGAS strain, luminescence, dose confirmation (AID 1902).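 Note: lower survival reflects blocked streptokinase promoter driving kanamycin resistance gene.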

In general, EC50 refers to the midpoint of the concentration-response curve. Regarding `CCCc1nc2ccccc2c(C(=O)OCC(=O)Nc2ccc(S(=O)(=O)N3CCOCC3)cc2)c1CC`, the EC50 is 7.15 µM.

Consider `O=C1C=CC(=O)N1CCNc1ncc(C(F)(F)F)cc1Cl`, for which the EC50 was 10.4 µM.

Consider `COc1ccc(/C=C/C(=O)NC(=S)NNC(=O)Cc2cccs2)cc1`, for which the EC50 was 1.23 µM.

As to `O=C1NC(=S)/C(=C\c2ccc(-c3ccccc3Cl)o2)S1`, the EC50 was 2.94 µM.

Regarding `COC(=O)C(Nc1ccccc1Cl)(c1cc(C)c(O)c(C)c1)C(F)(F)F` (stereo unspecified), the EC50 was 2.5 µM.

In the case of `C/C(=N\NC(=O)c1ccc(-c2ccccc2)cc1)C1C(=O)c2ccccc2C1=O`, the EC50 was 1.1 µM.

Turning to `S=C(NCCSCc1ccc(Cl)c(Cl)c1)Nc1ccccc1`, the EC50 is 3.71 µM.

On to `Cc1cc2oc(=O)cc(CN(C)Cc3ccccc3)c2cc1C(C)C`, for which the EC50 was 4.52 µM.

Consider `N#Cc1c(-c2ccccc2)c(-c2ccccc2)nn(CC(=O)NNC(=O)Nc2ccc(Cl)c(Cl)c2)c1=O`, for which the EC50 was 5.3 µM.

For `COc1ccc(C(=O)NC(=S)N(Cc2ccccc2)Cc2ccccc2)cc1`, the EC50 is 0.674 µM.

On to `CCOC(=O)N1CCN(C(=O)c2ccc3c(c2)NC(=O)/C(=C/c2ccccc2)S3)CC1`, for which the EC50 was 1.59 µM.

On to `Cc1cccc2nc(COc3ccc4ccccc4c3Br)cn12`, for which the half-maximal effective concentration (EC50) was 4.94 µM.

For `O=C(Nc1cccc(S(=O)(=O)Nc2ccc(Cl)cc2)c1)c1cc2c(s1)CCCC2`, the EC50 is 1.3 µM.

Consider `O=[N+]([O-])c1ccc(O)c(/C=N/Nc2nc3ccccc3[nH]2)c1`, for which the EC50 is 0.589 µM.

Regarding `Fc1cccc2sc(Nc3nnc(-c4ccccc4)o3)nc12`, the EC50 is 0.824 µM.

With `CC(=O)c1ccc(NC(=S)Nc2ccc(Br)c(Cl)c2)cc1`, the concentration giving a half-maximal response (EC50) was 6.2 µM.

Consider `CCOc1ccccc1NC(=O)c1nc(S(=O)(=O)Cc2ccccc2)ncc1Cl`, for which the EC50 was 8.85 µM.

With `C/C(=N\NC(=S)NCCc1ccccc1)c1ccc(Cl)cc1Cl`, the EC50 was 6.56 µM.

For `COc1cc(C(=O)NC(=S)N(CCc2ccccc2)CCc2ccccc2)cc(OC)c1OC`, the EC50 is 0.328 µM.

In the case of `Fc1ccc(N2CCN(Cc3cn[nH]c3-c3ccccc3)CC2)cc1`, the EC50 is > 15 µM (inactive).

In the case of `Cc1ccccc1N=Nc1ccc(O)c2ncccc12`, the EC50 is 0.069 µM.

On to `O=S(=O)(Nc1cccc2cccnc12)c1ccccc1`, for which the EC50 is 4.39 µM.

`CC/C(=C(\c1ccccc1)c1ccc(OCCN(C)C)cc1)c1ccccc1`: the EC50 is 6.17 µM.

Turning to `CCCN(CC(=O)Nc1ccccc1OC)C(=O)c1ccncc1`, the EC50 was > 15 µM (inactive).

Consider `Cc1cc(C)c(C(=O)Nc2ccc(Br)c(C(F)(F)F)c2)c(C)c1`, for which the EC50 is 2.79 µM.

With `O=C(Cc1cccs1)Nc1cccc(-c2nc3cc4ccccc4cc3[nH]2)c1`, the EC50 was 4.25 µM.

With `N#C/C(=C(/O)CCl)c1nc2c(s1)CCc1ccccc1-2`, the EC50 was 12.2 µM.

`Cc1cc(C)cc(C(=O)Nc2nc3ccccc3[nH]2)c1`: the 50% effective concentration (EC50) is 6.04 µM.

On to `O=C(Cc1ccccc1)NNC(=S)NC(=O)c1cccs1`, for which the EC50 is 3.83 µM.

On to `Cc1cc(C(=O)N/N=C/c2cc(Br)cc([N+](=O)[O-])c2O)c2ccccc2n1`, for which the EC50 was 0.893 µM.

Take `COc1cc(C(=O)Nc2ccc(-c3nc4cc(C)ccc4o3)c(O)c2)cc(OC)c1OC`: the EC50 is 3.9 µM.

`CCN1/C(=C/C=C/c2sc3ccccc3[n+]2CC)Sc2ccccc21`: the half-maximal effective concentration (EC50) is 2.15 µM.

Turning to `O=C1C=C(Nc2ccccc2)c2ccccc2C1=O`, the EC50 was 2.44 µM.

On to `O=C(Nc1cccc(C(F)(F)F)c1)c1cc2c(=O)c3ccccc3oc2nc1C(F)(F)F`, for which the EC50 was 7.27 µM.

For `COc1cccc2c1C(=O)c1c(O)c3c(c(O)c1C2=O)C[C@@](O)(C(=O)CO)C[C@@H]3O[C@H]1C[C@H](N)[C@H](O)[C@H](C)O1`, the EC50 is 1.15 µM.

In the case of `O=C(NCc1nc(-c2ccc(C(F)(F)F)cc2)no1)Nc1cc(Cl)cc(Cl)c1`, the EC50 is 2.31 µM.

For `COc1ccc2ncc(S(=O)(=O)c3ccccc3)c(N3CCN(c4ccccc4)CC3)c2c1`, the EC50 is 3.19 µM.

`Oc1ccc(CN2CCN(c3ccccc3)CC2)c2cccnc12`: the EC50 was 3.76 µM.

Regarding `Cc1ccc(Cn2cc(/C=N/NC(=O)Cc3nnc(NC(=O)c4ccc(C)cc4)s3)c3ccccc32)cc1`, the 50% effective concentration (EC50) was 4.24 µM.

Turning to `S=C(NCc1cccs1)Nc1cc(Cl)cc(Cl)c1`, the EC50 is 7.18 µM.

`CN1c2ccccc2C(C)(C)C12C=Nc1c(ccc3ccccc13)O2` (stereo unspecified): the EC50 is 2.16 µM.

Take `Oc1ccc(/C=N/Nc2ccc3ccccc3c2)c(O)c1`: the EC50 was 7.53 µM.

In the case of `Oc1c(CN2CCCCC2)cc(Br)c2cccnc12`, the EC50 is 1.12 µM.

As to `Oc1c(C=Nc2cccc3cccnc23)sc2ccccc12`, the EC50 was 3.94 µM.

Consider `O=C1C2C(c3ccccc3)=NN(c3ccccc3)C2C(=O)N1c1ccccc1` (stereo unspecified), for which the half-maximal effective concentration (EC50) was 0.704 µM.

With `O=C(CSC(=S)N1CCCCC1)Nc1nc(-c2ccccc2)c(-c2ccccc2)o1`, the EC50 is 1.76 µM.

In the case of `CC(C)c1ccc(NC(=O)c2cc(S(=O)(=O)NCC3COc4ccccc4O3)ccc2F)cc1` (stereo unspecified), the EC50 is 5.37 µM.

As to `c1ccc(-c2nnc(-c3c[nH]c4ccccc34)nc2-c2ccccc2)cc1`, the EC50 was 7.17 µM.

For the molecule `Clc1ccc2c(N/N=C/c3cccc(Br)c3)ccnc2c1`, the EC50 is 2.86 µM.

In the case of `COc1ccc(-c2coc3c(C)c4oc(=O)c(CCC(=O)O)c(C)c4cc23)cc1`, the EC50 was 2.13 µM.

With `CC(C)NC(=O)NC(=O)CSc1nnc(COc2ccccc2F)n1C(C)C1CC2CCC1C2` (stereo unspecified), the EC50 is 6.58 µM.

In the case of `CC(C)(C)c1ccc(OCC(=O)Nc2ccc(C(=O)Nc3ccccc3C(=O)O)cc2)cc1`, the EC50 is 1.54 µM.

On to `CCCCN(CCCC)c1nc(-c2ccncc2)nc2ccccc12`, for which the EC50 is 4.24 µM.

As to `COc1ccc(C2=NOC(CNC(N)=S)C2)cc1` (stereo unspecified), the EC50 was 3.41 µM.

As to `O=C(Nc1nnc(C2=COCCO2)o1)c1ccc(Br)cc1`, the EC50 is 0.78 µM.

As for `c1ccc(-n2c3ccccc3c3ccccc32)cc1`, the EC50 is 4.4 µM.

Turning to `COCCn1c(N)c(C(=O)NS(=O)(=O)c2ccc(C)cc2)c(=O)[nH]c1=O`, the EC50 is > 15 µM (inactive).

In the case of `Cc1ccsc1C1C=C(c2cccc(Br)c2)Nc2ncnn21` (stereo unspecified), the EC50 is 14.2 µM.

`CCCn1c(NC(=O)c2ccccc2Br)nc2ccccc21`: the EC50 was 5.66 µM.

In the case of `CCOc1ccc(N(CC(=O)NCc2ccc(C)cc2)S(=O)(=O)c2c(C)[nH]c(=O)[nH]c2=O)cc1`, the EC50 is > 15 µM (inactive).

Turning to `Cc1cccc(-c2oc3ccccc3c2-c2ccc3c(c2)OCO3)c1`, the 50% effective concentration (EC50) was 3.65 µM.

For `O=C(COc1ccc(Cl)cc1Cl)NNC(=S)NC(=O)c1ccco1`, the EC50 is 0.102 µM.

In the case of `COC(=O)C1CN(C#N)N(c2ccc(Cl)cc2)C12c1ccccc1-c1ccccc12` (stereo unspecified), the EC50 was 4.21 µM.

`C/C(=N\N=C(/N)SC1CC(=O)N(c2ccc(Br)cc2)C1=O)c1cccs1` (stereo unspecified): the EC50 was 5.03 µM.

Turning to `COc1ccc(C(=O)NNC(=S)NC(=O)c2ccco2)cc1`, the EC50 is 2.29 µM.

For `CCOC(=O)c1sc2nccc(N(C)C)c2c1N=CNOCc1c(F)cccc1Cl`, the EC50 was 5.16 µM.

With `CCN1CCN(C(c2ccc(C(F)(F)F)cc2)c2ccc3cccnc3c2O)CC1` (stereo unspecified), the EC50 was 1.82 µM.

On to `CCC(CC)C1=NN2C(=N)/C(=C\c3cc(C)n(-c4cccc(C)c4)c3C)C(=O)N=C2S1`, for which the EC50 is 2.91 µM.

Take `CC(C)(C)c1cc(C(=O)Nc2ccc(F)cc2)n(Cc2ccc(F)cc2)n1`: the EC50 is 3.77 µM.

`FC(F)(F)c1cccc(NC(=S)Nc2ccc(Cl)cc2Cl)c1`: the EC50 is 2.83 µM.

Turning to `Cc1cc(/C=C2\SC(=O)NC2=O)c(C)n1-c1ccc(N2CCOCC2)cc1`, the EC50 is 1.58 µM.

For the molecule `N=C1S/C(=C\c2ccc(-c3cccc(Cl)c3)o2)C(=O)N1c1nccs1`, the EC50 is less than 0.06 µM.

On to `Cc1nn2c(NCc3ccccn3)cc(C(C)C)nc2c1-c1ccccc1`, for which the EC50 was 5.94 µM.

For `Cc1ccc(C)c(/C=C/C(=O)c2ccccc(=O)c2O)c1`, the EC50 is 1.9 µM.

On to `O=S(=O)(c1ccc(F)cc1)c1nc(-c2ccccc2)oc1N1CCOCC1`, for which the EC50 was > 15 µM (inactive).

In the case of `CCC(CC)NC(=O)c1oc2ccccc2c1COc1ccccc1`, the EC50 was 13 µM.

As for `COc1ccc(NC(C)C(=O)N/N=C/c2c(O)ccc3ccccc23)cc1` (stereo unspecified), the concentration giving a half-maximal response (EC50) was 1.14 µM.

`C=CCn1c(N)c(C(=O)Nc2cccc(C)c2)c2nc3ccccc3nc21`: the EC50 is 3.4 µM.

For the molecule `COc1ccc(-c2ncn(CCC#N)c2[N+](=O)[O-])cc1`, the EC50 is 2.72 µM.

Consider `CCOC(=O)c1c(-c2ccc(C)cc2)csc1NC(=O)CCN1CCOCC1`, for which the EC50 is > 15 µM (inactive).

For the molecule `Cc1cccc2sc(NNC(=O)c3cc(=O)c4ccccc4o3)nc12`, the EC50 was 0.42 µM.

`Cc1cc(C(F)(F)F)c(C#N)c(SCC(=O)Nc2nc3cc(Br)ccc3s2)n1`: the EC50 is 5.7 µM.

For `Cc1ccc(C(=O)N/N=C/c2ccc([N+](=O)[O-])s2)cc1`, the EC50 was 14 µM.

For `CC12CCC(c3c(C(=O)Nc4nccs4)nn(-c4ccccc4)c31)C2(C)C` (stereo unspecified), the EC50 is 3.4 µM.

For the molecule `Cc1ccc(S(=O)(=O)CNC(=S)c2ccc3ccccc3c2)cc1`, the EC50 is 4.18 µM.

`CCOc1cc(/C=N/Nc2cc(C)nc(-n3nc(C)cc3C)n2)ccc1O`: the concentration for a half-maximal effect (EC50) was 0.853 µM.

Regarding `Cc1ccc(SC/C(O)=C(\C#N)c2nc3ccccc3s2)cc1`, the EC50 was 2.83 µM.

Consider `CN1C(=O)/C(=C/c2ccccc2Cl)Sc2ccc(C(=O)NCc3cccnc3)cc21`, for which the EC50 was 4.69 µM.

Consider `COc1cccc(-c2coc3cc4oc(=O)c(CCC(=O)O)c(C)c4cc23)c1`, for which the EC50 was 5.12 µM.

Turning to `COc1ccccc1CNC(=O)c1ccc(-c2ccccc2Cl)o1`, the concentration giving a half-maximal response (EC50) was 9.96 µM.

In the case of `COc1ccc(C(=O)N/N=C/c2cc(Br)ccc2O)cc1OC`, the EC50 was 1.28 µM.

For the molecule `O=Nc1c2cc(-c3ccccc3)[nH]nc-2c2ccccc12`, the EC50 is 6.43 µM.

In the case of `COc1ccc(-c2cc(C3CCN(c4ccc(C(C)=O)cc4[N+](=O)[O-])CC3)[nH]n2)cc1`, the EC50 was 2.76 µM.

`N#Cc1c(-c2c(Cl)cccc2Cl)noc1/C=C/Nc1ccc(C(=O)O)cc1`: the EC50 is 4.6 µM.

Consider `CC1(C)S[C@@H]2[C@H](NC(=O)C(NC(=O)N3CCNC3=O)c3ccccc3)C(=O)N2[C@H]1C(=O)O` (stereo partly specified), for which the EC50 was less than 0.06 µM.

In the case of `O=C(Nc1ccc(Br)cc1C(=O)O)c1ccc2c(c1)C(=O)N(Cc1ccccc1)C2=O`, the EC50 is 1.15 µM.
